Reference: US20240197666A1, “DITERPENOID COMPOUNDS THAT ACT ON PROTEIN KINASE C (PKC)” (K-Gen Therapeutics, Inc., priority 2021, published 2024)

What was measured:
PANC1 cells = experiment: Sphere formation assay; type: cell-based; conditions: Homo sapiens, PANC-1, read-out: concentration exhibiting at least 50% inhibition on the sphere forming efficiency
In short: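 K-Ras mutant PANC1 single cells seeded at 100 cells/well on ultra-low attachment plates in 10% FBS medium with 2% Matrigel plus DMSO or compound, six replicates, 37° C. Low-serum (0.1% FBS) medium added weekly; spheres counted at 3-4 weeks, efficiency as % spheres per cells seeded.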

human PBMC cells = experiment: Cytokine/chemokine gene expression in human PBMC (TaqMan); type: cell-based; conditions: 4 h;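 on Gene Relative Expression CCL2: 2^-ΔΔCt fold change vs DMSO control normalized to 18S and GAPDH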;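 on Gene Relative Expression GM-CSF: 2^-ΔΔCt fold change vs DMSO control normalized to 18S and GAPDH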;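 on Gene Relative Expression IFN-α: 2^-ΔΔCt fold change vs DMSO control normalized to 18S and GAPDH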;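 on Gene Relative Expression IFNγ: 2^-ΔΔCt fold change vs DMSO control normalized to 18S and GAPDH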
Method: Each treatment condition was performed in duplicates.

[1] = tested on: NFκB-driven transcription in HeLa-NFκB luciferase reporter cell line; experiment: NFκB luciferase reporter assay; conditions: Homo sapiens, HeLa, 16 h, read-out: NFκB-luc HeLa cells EC50 (μM)
Method: A HeLa-NFκB luciferase reporter cell line (Wuxi Biology) was used to assess a group of PKC activator compounds for their ability to activate NFκB-driven transcription. […] One set of cells was assayed for luciferase activity (Promega, Cat #E1500) and the other set was assayed to determine the number of viable cells (for cell number normalization) using CellTiter-Glo (CTG) kit (Promega, Cat #G7570) according to manufacture's procedures. Normalized data (luciferase value/CTG value) were analyzed using GraphPad Prism5 to calculate EC50 for each compound (see Table 8).
To assess if activation of PKC is required for these compounds to activate NFκB, several PKC inhibitors including broad-spectrum and conventional PKC inhibitors were tested. In the assay described above, PKC inhibitors were added at the same time as the PKC activator compounds.

C1b domain of human PKCε = target: T1, C1b domain of human PKCε (Homo sapiens, UniProt Q02156); experiment: biochemical; type: binding; conditions: 3H-PDBu competition
T1 construct: Genes encoding C1b domains of human PKCα, δ, ε, θ, and PKD1 (PKCμ) were synthesized; made in house; host or cells: E. coli BL21(DE3)
T1 sequence (Q02156 242-292 limits assumed): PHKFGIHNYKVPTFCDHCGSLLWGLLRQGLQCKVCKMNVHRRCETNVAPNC
In short: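 Recombinant GST-C1b domains (E. coli-expressed) or full-length human PKC competed against tracer ^3H-PDBu; incubation 10 min at 37°C then 20 min on ice, bound radioligand filter-trapped and scintillation-counted. IC50 fitted and converted to Ki via Cheng-Prusoff using experimentally determined Kd per protein preparation.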

`CC1=C[C@H]2[C@@]3(O)[C@H](C)C[C@]4(OC(=O)[C@H](N)CCCCCCc5ccccc5)[C@H]([C@@H]3C=C(CO)C[C@]2(O)C1=O)C4(C)C` was tested, and the IC50 (PANC1 cells) was no more than 150 nM, the “Gene Relative Expression CCL2” value (human PBMC cells; 0.03 μM) was 4.55 and the “Gene Relative Expression GM-CSF” value (human PBMC cells; 0.03 μM) was 1.89. For the same compound, the “Gene Relative Expression IFN-α” value (human PBMC cells; 0.03 μM) was 1.66, the “Gene Relative Expression IFNγ” value (human PBMC cells; 0.03 μM) was 1.62 and the “Gene Relative Expression IL-1β” value (human PBMC cells; 0.03 μM) was 0.54. For the same compound, the “Gene Relative Expression IL-2” value (human PBMC cells; 0.03 μM) was 1.71, the “Gene Relative Expression IL-6” value (human PBMC cells; 0.03 μM) was 0.74 and the “Gene Relative Expression IL-8” value (human PBMC cells; 0.03 μM) was 0.80. The “Gene Relative Expression IL-10” value (human PBMC cells; 0.03 μM) was 1.27, the “Gene Relative Expression IL-12p40” value (human PBMC cells; 0.03 μM) was 0.74 and the “Gene Relative Expression IL-12p70” value (human PBMC cells; 0.03 μM) was 1.02. For the same compound, the “Gene Relative Expression IL-13” value (human PBMC cells; 0.03 μM) was 0.40, the “Gene Relative Expression IL-18” value (human PBMC cells; 0.03 μM) was 0.47 and the “Gene Relative Expression ISG15” value (human PBMC cells; 0.03 μM) was 0.97. The “Gene Relative Expression MIP1a (CCL3)” value (human PBMC cells; 0.03 μM) was 1.86, the “Gene Relative Expression MX1” value (human PBMC cells; 0.03 μM) was 0.65 and the “Gene Relative Expression OAS1” value (human PBMC cells; 0.03 μM) was 0.64. The “Gene Relative Expression TNF-α” value (human PBMC cells; 0.03 μM) was 1.38, the “Gene Relative Expression CCL2” value (human PBMC cells; 0.10 μM) was 3.12 and the “Gene Relative Expression GM-CSF” value (human PBMC cells; 0.10 μM) was 7.74. The “Gene Relative Expression IFN-α” value (human PBMC cells; 0.10 μM) was 0.73, the “Gene Relative Expression IFNγ” value (human PBMC cells; 0.10 μM) was 3.47 and the “Gene Relative Expression IL-1β” value (human PBMC cells; 0.10 μM) was 1.58. The “Gene Relative Expression IL-2” value (human PBMC cells; 0.10 μM) was 7.65, the “Gene Relative Expression IL-4” value (human PBMC cells; 0.10 μM) was 1.61 and the “Gene Relative Expression IL-6” value (human PBMC cells; 0.10 μM) was 1.14. For the same compound, the “Gene Relative Expression IL-8” value (human PBMC cells; 0.10 μM) was 0.53, the “Gene Relative Expression IL-10” value (human PBMC cells; 0.10 μM) was 0.48 and the “Gene Relative Expression IL-12p40” value (human PBMC cells; 0.10 μM) was 0.45. For the same compound, the “Gene Relative Expression IL-12p70” value (human PBMC cells; 0.10 μM) was 0.93, the “Gene Relative Expression IL-13” value (human PBMC cells; 0.10 μM) was 47.45 and the “Gene Relative Expression IL-18” value (human PBMC cells; 0.10 μM) was 0.09. The “Gene Relative Expression ISG15” value (human PBMC cells; 0.10 μM) was 1.16, the “Gene Relative Expression MIP1a (CCL3)” value (human PBMC cells; 0.10 μM) was 2.39 and the “Gene Relative Expression MX1” value (human PBMC cells; 0.10 μM) was 0.72. For the same compound, the “Gene Relative Expression OAS1” value (human PBMC cells; 0.10 μM) was 0.55, the “Gene Relative Expression TNF-α” value (human PBMC cells; 0.10 μM) was 4.04 and the “Gene Relative Expression CCL2” value (human PBMC cells; 0.3 μM) was 2.09. The “Gene Relative Expression GM-CSF” value (human PBMC cells; 0.3 μM) was 10.50, the “Gene Relative Expression IFN-α” value (human PBMC cells; 0.3 μM) was 0.95 and the “Gene Relative Expression IFNγ” value (human PBMC cells; 0.3 μM) was 18.57. The “Gene Relative Expression IL-1β” value (human PBMC cells; 0.3 μM) was 1.53, the “Gene Relative Expression IL-2” value (human PBMC cells; 0.3 μM) was 3.41 and the “Gene Relative Expression IL-4” value (human PBMC cells; 0.3 μM) was 2.57. The “Gene Relative Expression IL-6” value (human PBMC cells; 0.3 μM) was 4.85, the “Gene Relative Expression IL-8” value (human PBMC cells; 0.3 μM) was 0.59 and the “Gene Relative Expression IL-10” value (human PBMC cells; 0.3 μM) was 0.06. For the same compound, the “Gene Relative Expression IL-12p40” value (human PBMC cells; 0.3 μM) was 0.69, the “Gene Relative Expression IL-12p70” value (human PBMC cells; 0.3 μM) was 0.61 and the “Gene Relative Expression IL-13” value (human PBMC cells; 0.3 μM) was 78.90. For the same compound, the “Gene Relative Expression IL-18” value (human PBMC cells; 0.3 μM) was 0.04, the “Gene Relative Expression ISG15” value (human PBMC cells; 0.3 μM) was 1.14 and the “Gene Relative Expression MIP1a (CCL3)” value (human PBMC cells; 0.3 μM) was 3.37. The “Gene Relative Expression MX1” value (human PBMC cells; 0.3 μM) was 0.57, the “Gene Relative Expression OAS1” value (human PBMC cells; 0.3 μM) was 0.42 and the “Gene Relative Expression TNF-α” value (human PBMC cells; 0.3 μM) was 4.13. It also gave an EC50 [1] of 0.01 to 0.03 µM and a Ki (C1b domain of human PKCε) of 10 to 30 nM.
